Measured values: the Deep4Chem optical property database

Test: solvent given as SMILES
[1] = in O=P(c1ccccc1)(c1ccccc1)c1ccccc1Oc1ccccc1P(=O)(c1ccccc1)c1ccccc1

COc1ccc(-c2nc(-c3ccccc3O)c(-c3ccccc3O)n2-c2ccc(C)cc2)cc1
fluorescence lifetime (in C1CCOC1): 2.51 ns | fluorescence lifetime (in CS(C)=O): 1.6 ns | fluorescence lifetime (in ClC(Cl)Cl): 1.78 ns | fluorescence lifetime (in ClCCl): 2.56 ns

CCN(CC)c1ccc2c(c1)oc(=O)c1cnc3c(c(C)nn3-c3ccccc3)c12
fluorescence lifetime (in ClCCl): 3.34 ns

CC1=[N+]2C(=C(Oc3ccc4c(c3)CC[C@@H]3[C@@H]4CC[C@]4(C)C(=O)CC[C@@H]34)c3ccc(C)n3[B-]2(F)F)C=C1c1cc2n(c1)[B-](F)(F)[N+]1=CC=CC1=C2c1c(C)cc(C)cc1C
fluorescence lifetime (in C1CCCCC1): 2.7 ns | fluorescence lifetime (in CCOC(C)=O): 0.911 ns

N#Cc1nc2c3ccc(-n4c5ccccc5c5ccccc54)cc3c3cc(-n4c5ccccc5c5ccccc54)ccc3c2nc1C#N
fluorescence lifetime (in O=P(c1ccccc1)(c1ccccc1)c1cccc(-c2cc(-n3c4ccccc4c4ccccc43)cc(-n3c4ccccc4c4ccccc43)c2)n1): 29.5 ns

Cc1ccc(-[c+]2c3ccccc3sc3ccccc32)cc1
fluorescence lifetime (in CC#N): 1 ns

COc1ccc(C2=C3C(C)=CC(C)=[N+]3[B-](F)(F)n3c(C)cc(C)c32)cc1
fluorescence lifetime (in Cc1ccccc1): 4.86 ns

CCOC(=O)C1=CN(c2ccccc2)C=CC1c1ccccc1 (configuration not stated)
fluorescence lifetime (in C1CCOC1): 7.14 ns | fluorescence lifetime (in CO): 7.55 ns

N#CC1=c2cc3c4c(c2Oc2c1cc1c5c2CCCN5CCC1)CCC[N+]=4CCC3
fluorescence lifetime (in CCO): 1.93 ns

CCOC(=O)C(C(=O)OCC)C1=[N+]2C(=C(c3ccc(C)cc3)c3ccc(Cl)n3[B-]2(F)F)C=C1
fluorescence lifetime (in C1CCCCC1): 2.69 ns | fluorescence lifetime (in C1CCOC1): 2.5 ns | fluorescence lifetime (in CCOC(C)=O): 2.31 ns | fluorescence lifetime (in CO): 2.02 ns | fluorescence lifetime (in Cc1ccccc1): 3.63 ns | fluorescence lifetime (in ClC(Cl)Cl): 3.67 ns

O=P1(c2ccccc2)C(c2ccccc2)=Cc2cc3ccccc3cc21 (configuration not stated)
fluorescence lifetime (in ClCCl): 3.5 ns

CCc1ccc(-n2c3ccccc3c3cc4c(cc32)c2ccccc2n4-c2ccc(CC)s2)s1
fluorescence lifetime (in ClC(Cl)Cl): 0.63 ns

CCC1(CC)c2cc(C#Cc3cccs3)ccc2-c2c1c1c(c3c2C(CC)(CC)c2cc(C#Cc4cccs4)ccc2-3)C(CC)(CC)c2cc(C#Cc3cccs3)ccc2-1
fluorescence lifetime (in C1CCOC1): 1.5 ns

O=C(O)c1c2ccccc2c(C(=O)O)c2ccccc12
fluorescence lifetime (in C1CCOC1): 8.8 ns | fluorescence lifetime (in CN(C)C=O): 5.7 ns

Nc1cccc[nH+]1
fluorescence lifetime (in O): 11.2 ns

CCOC(=O)c1csc2[n+]1[B-](F)(F)OC(c1ccc(N(C)C)cc1)=N2
fluorescence lifetime (in C1CCOC1): 2.1 ns

F[B-]1(F)OC(c2ccc(C(F)(F)F)cc2)=Cc2cc(Cl)nc[n+]21
fluorescence lifetime (in C1CCOC1): 0.13 ns | fluorescence lifetime (in Cc1ccccc1): 0.21 ns

c1ccc(-c2nn(-c3ccccc3)c3nc4ccccc4cc23)cc1
fluorescence lifetime (in C1CCCCC1): 17.9 ns | fluorescence lifetime (in C1CCOC1): 21.2 ns | fluorescence lifetime (in CC#N): 25.1 ns | fluorescence lifetime (in CC(C)=O): 23.4 ns | fluorescence lifetime (in CCCCCl): 19.7 ns | fluorescence lifetime (in CCCCOCCCC): 18.6 ns | fluorescence lifetime (in CN(C)C=O): 22 ns

C[Si](C)(C)C#CC(C#C[Si](C)(C)C)=Cc1ccc(C=C(C#C[Si](C)(C)C)C#C[Si](C)(C)C)s1
fluorescence lifetime (in ClC(Cl)Cl): 0.3 ns

CCCCCCOc1ccc(N(c2ccc(OCCCCCC)cc2)c2ccc(-c3sc(-c4ccc(N(c5ccc(OCCCCCC)cc5)c5ccc(OCCCCCC)cc5)cc4)c4nc(-c5ccc(C(=O)OC)cc5)c(-c5ccc(C(=O)OC)cc5)nc34)cc2)cc1
fluorescence lifetime (in CN(C)C=O): 0.61 ns | fluorescence lifetime (in ClC(Cl)Cl): 0.58 ns

COC(=O)c1ccc(-c2nc3ccc(N(C)C)cc3s2)cc1
fluorescence lifetime (in C1CCCCC1): 2.4 ns

O=C1c2ccccc2-c2nc3c(F)c(F)c(F)c(F)c3n21
fluorescence lifetime (in ClCCl): 9.5 ns

NS(=O)(=O)c1ccc(N2N=C(c3ccc(O)cc3)CC2c2ccc(Cl)cc2)cc1 (configuration not stated)
fluorescence lifetime (in C1CCOC1): 2.32 ns | fluorescence lifetime (in C1COCCO1): 2.29 ns | fluorescence lifetime (in CC#N): 2.29 ns | fluorescence lifetime (in CC(C)O): 2 ns | fluorescence lifetime (in CCO): 1.88 ns | fluorescence lifetime (in CCOC(C)=O): 2.34 ns | fluorescence lifetime (in CN(C)C=O): 2.35 ns | fluorescence lifetime (in CO): 1.68 ns | fluorescence lifetime (in CS(C)=O): 2.49 ns | fluorescence lifetime (in O): 3.2 ns

C(#Cc1ccc(C#Cc2ccc(C#Cc3ccccc3)cc2)cc1)c1ccccc1
fluorescence lifetime (in ClC(Cl)Cl): 1.7 ns

C(=C\c1ccc(Nc2ccccc2)cc1)/c1ccccc1
fluorescence lifetime (in CC#N): 0.39 ns | fluorescence lifetime (in CCCCCC): 0.34 ns

CCN(CC)c1ccc(C=Cc2nc3nc4ccccc4nc3s2)c(OC)c1
fluorescence lifetime (in CCCCCCC(C)O): 0.977 ns | fluorescence lifetime (in CCOC(C)=O): 0.96 ns | fluorescence lifetime (in CO): 0.04 ns | fluorescence lifetime (in CS(C)=O): 0.41 ns | fluorescence lifetime (in Cc1ccccc1): 0.27 ns | fluorescence lifetime (in ClC(Cl)Cl): 0.97 ns | fluorescence lifetime (in ClCCl): 1.29 ns

Cc1c(C(=O)c2ccc(C(F)(F)F)cc2)c2ccc3cccc4c5cccc6ccc1c(c65)c2c34
fluorescence lifetime (in ClCCl): 1.39 ns

CCc1c(C(=O)OC)c(C(=O)OC)c2ccc(-c3ccccc3)nn12
fluorescence lifetime (in CCCCCC): 21.1 ns

CCOC(=O)c1ccc2nc(/N=N/c3ccc(N(CC)CC)cc3)sc2c1
fluorescence lifetime (in CC#N): 5.59 ns | fluorescence lifetime (in ClCCl): 5.33 ns

CCOC(=O)CCCCCn1c2ccc(N)cc2c(=O)c2cc3c(cc21)c(=O)c1cc(N)ccc1n3CCCCCC(=O)OCC
fluorescence lifetime (in ClCCl): 15.6 ns

Cc1ccc(N(c2ccc(C)cc2)c2ccc(-c3ccc4c(c3)C(=O)c3ccccc3C4=O)cc2)cc1
fluorescence lifetime (in CCCCCC): 6.89 ns | fluorescence lifetime (in CCOCC): 1.27 ns | fluorescence lifetime (in Cc1ccccc1): 5.75 ns | fluorescence lifetime (in ClC(Cl)(Cl)Cl): 9.25 ns

CC(C)(C)NC(=O)c1ccc(-c2cc3ccccc3s2)c2ccc3c4ccccc4c4ccccc4c3c12
fluorescence lifetime (in ClCCl): 0.69 ns

N#Cc1c(-c2ccc(N(c3ccccc3)c3ccccc3)cc2)c(C#N)c(-c2ccc(N(c3ccccc3)c3ccccc3)cc2)c(C#N)c1-c1ccc(N(c2ccccc2)c2ccccc2)cc1
fluorescence lifetime [1]: 6.21 ns

O=C1OC(=O)c2ccc(N(c3ccccc3)c3ccc4ccc5cccc6ccc3c4c56)c3cccc1c23
fluorescence lifetime (in CCCCCC): 4.36 ns | fluorescence lifetime (in c1ccccc1): 1.17 ns

CC1(C)c2ccccc2N(c2ccc3c(c2)c2ccccc2c2nc4ccccc4nc32)c2ccccc21
fluorescence lifetime (in c1cc(-c2cccc(-n3c4ccccc4c4ccccc43)c2)cc(-n2c3ccccc3c3ccccc32)c1): 68 ns

COC(=O)c1cc(=O)n(C)c2cc(-c3ccccc3OC)sc12
fluorescence lifetime (in ClCCl): 1.31 ns

Cc1ccc(-c2cc(C)[o+]c(C)c2)cc1
fluorescence lifetime (in CC#N): 8.7 ns | fluorescence lifetime (in ClCCl): 3.3 ns

O=Cc1ccc(C#CC(C#Cc2ccc(C=O)s2)=Cc2ccc(C=C(C#Cc3ccc(C=O)s3)C#Cc3ccc(C=O)s3)s2)s1
fluorescence lifetime (in ClC(Cl)Cl): 0.5 ns

Cc1ccccc1-c1nc(-c2ccccc2C)nc(-c2ccc(N3c4ccccc4C4(c5ccccc5-c5ccccc54)c4ccccc43)cc2C)n1
fluorescence lifetime [1]: 24 ns

CN(C)c1ccc(C2=Nc3sc4cc(F)ccc4[n+]3[B-](F)(F)O2)cc1
fluorescence lifetime (in Cc1ccccc1): 1.68 ns

COc1c2ccccc2c(OC)c2c1c1cc(Cl)ccc1n2C
fluorescence lifetime (in C1CCCCC1): 21.2 ns | fluorescence lifetime (in CC#N): 26.8 ns | fluorescence lifetime (in CO): 25.9 ns | fluorescence lifetime (in ClCCl): 23.2 ns

Fc1cc(-c2nc(-c3ccccc3)nc(-c3ccccc3)n2)ccc1-n1c2ccccc2c2c3c(ccc21)C1(c2ccccc2-c2ccccc21)c1ccccc1-3
fluorescence lifetime [1]: 8.3 ns

Nc1ccccc1/C=C/C(F)(F)F
fluorescence lifetime (in C1CCOC1): 7.32 ns

COc1ccc(/C=C/c2ccccc2)cc1OC
fluorescence lifetime (in CC#N): 0.5 ns

COc1ccc(-c2csc(/C(C#N)=C/c3c(Cl)cccc3Cl)n2)cc1
fluorescence lifetime (in CC#N): 4.07 ns

COc1ccc(-c2c(-c3ccc(OC)cc3)c3c4c(cccc4c2-c2ccccc2)C(=O)c2ccccc2-3)cc1
fluorescence lifetime (in CC#N): 2.3 ns | fluorescence lifetime (in CO): 0.8 ns

Fc1cccc(C2=Cc3ccc4ccccc4[n+]3[B-](F)(F)O2)c1
fluorescence lifetime (in ClC(Cl)Cl): 1.11 ns

Cc1cc(C)c(-c2nnc(-c3ccc(-n4c5ccccc5c5ccccc54)c(C)c3)o2)c(C)c1
fluorescence lifetime (in CCO): 1.94 ns

c1cc2c([nH]c3c4[nH]c5sccc5c4c4nsnc4c23)s1
fluorescence lifetime (in C1CCOC1): 16.2 ns | fluorescence lifetime (in CCOC(C)=O): 16.5 ns | fluorescence lifetime (in CN(C)C=O): 16 ns | fluorescence lifetime (in Cc1ccccc1): 13.8 ns | fluorescence lifetime (in ClCCl): 13.2 ns

CC(C)[Si](C#Cc1c2ccccc2c(C#C[Si](C(C)C)(C(C)C)C(C)C)c2nc3cc4c(cc3nc12)C1c2ccccc2C4c2ccccc21)(C(C)C)C(C)C
fluorescence lifetime (in CCCCCC): 13.3 ns | fluorescence lifetime (in ClCCl): 18.3 ns

[NH3+]C1(c2ccc3cc(O)ccc3c2)C2CC3CC(C2)CC1C3 (configuration not stated)
fluorescence lifetime (in CC#N): 10.3 ns

c1ccc(-c2nc(-c3ccc(N4c5ccccc5C(c5ccccc5)(c5ccccc5)c5ccccc54)cc3)cc(-c3ccc(N4c5ccccc5C(c5ccccc5)(c5ccccc5)c5ccccc54)cc3)n2)cc1
fluorescence lifetime (in O=P(c1ccccc1)(c1ccccc1)c1ccc2oc3ccc(P(=O)(c4ccccc4)c4ccccc4)cc3c2c1): 11 ns

CCN(CC)c1ccc2c(-c3ccccc3C(=O)O)c3c([o+]c2c1)/C(=C/c1nc(-c2ccccc2)n2ccccc12)CCC3
fluorescence lifetime (in ClCCl): 2.97 ns

O=C1c2ccc(N(c3ccc(-c4ccccc4)cc3)c3ccc(-c4ccccc4)cc3)cc2C(=O)c2ccc(N(c3ccc(-c4ccccc4)cc3)c3ccc(-c4ccccc4)cc3)cc21
fluorescence lifetime (in Cc1ccccc1): 3.5 ns | fluorescence lifetime (in c1ccc2c(c1)c1ccccc1n2-c1ccc(-c2ccc(-n3c4ccccc4c4ccccc43)cc2)cc1): 5.6 ns

CN(C)c1ccc(/C=C/c2cc[n+](Cc3cc(C[n+]4ccc(/C=C/c5ccc(N(C)C)cc5)cc4)cc(C[n+]4ccc(/C=C/c5ccc(N(C)C)cc5)cc4)c3)cc2)cc1
fluorescence lifetime (in CCCCCCCCO): 0.64 ns | fluorescence lifetime (in CCO): 0.06 ns | fluorescence lifetime (in CO): 0.04 ns | fluorescence lifetime (in ClC(Cl)Cl): 0.64 ns | fluorescence lifetime (in ClCCl): 0.32 ns

CN(C)c1ccc(/C=C/c2ccc(-c3nc(C#N)c(C#N)n3C)cc2)cc1
fluorescence lifetime (in C1CCCCC1): 0.7 ns | fluorescence lifetime (in ClC(Cl)Cl): 0.7 ns

CC(C)(C)NC1=C2C=CC=[N+]2[B-](F)(F)n2cccc21
fluorescence lifetime (in C1CCCCC1): 6.17 ns | fluorescence lifetime (in CC(C)=O): 0.0272 ns | fluorescence lifetime (in CCO): 0.0307 ns | fluorescence lifetime (in CCOC(C)=O): 0.188 ns | fluorescence lifetime (in CO): 0.019 ns | fluorescence lifetime (in OCC(F)(F)F): 0.125 ns

CC(C)(C)c1cc2ccc3cc(C(C)(C)C)cc4c(N(c5ccccc5)c5ccccc5)cc(c1)c2c34
fluorescence lifetime (in CCCCCC): 3.1 ns

COc1ccc(N(c2ccccc2)c2cc3ccc4cc(N(c5ccccc5)c5ccc(OC)cc5)cc5ccc(c2)c3c45)cc1
fluorescence lifetime (in Cc1ccccc1): 18 ns

CC(=O)OC[C@@H]1O[C@H](n2cnc3c2N=CN2Cc4c[n+](C)c(C)nc4N=C32)[C@@H](O)[C@H]1O
fluorescence lifetime (in CC#N): 3.5 ns | fluorescence lifetime (in CCO): 3.24 ns | fluorescence lifetime (in O): 3.28 ns
